Assay [1] concerns E. coli K-12 BW25113. Particulars: from Chowdhury, Wood, et al., 2016; cited from earlier work.
In assay [2] the test system is P. aeruginosa PA14. Particulars: from Chowdhury, Wood, et al., 2016; cited from earlier work.
Assay [3] deals with S. aureus ATCC29213. Particulars: from Chowdhury, Wood, et al., 2016; cited from earlier work.
In assay [4] the test system is P. aeruginosa PA14 exponentially-growing cells. The assay can be described thus: Killing at one MIC in PBS, NPIMA compared with cisplatin. The format is cell-based, Pseudomonas aeruginosa. An excerpt:
FIG. 7. NPIMA compared width cisplatin for killing Pseudomonas aeruginosa, Escherichia coli, and Staphylococcus aureus. Survival of exponentially-growing cells of P. aeruginosa PA14 (a), E. coli (b), and S. aureus (c) treated with one MIC of NPIMA (♦) and cisplatin (●) for 3 hr in PBS. DMSO (▴) and NaClO4 (*) were used as a negative controls. MIC, minimum inhibitory concentration; NPIMA, 5-nitro-3-phenyl-1H-indol-2-yl-methylamine hydrochloride.
For bacterial viability, cells were washed twice with 0.85% NaCl, resuspended in 1×PBS, and cell counts were determined via the drop assay (Donegan, Matyac, Seidler, & Porteous, 1991). For human cell viability, pre-cultured human cancer HT-29 cells were dispensed in 98 μl in 96-well plates with approximately 5,000 cells/well. NPIMA was added (2 μl) to produce concentrations of 5, 10, 100, and 200 μM. For controls, Triton X-100 (positive control) and DMSO (negative solvent control), were used, and the medium was used for background. Plates were incubated in a humidified incubator (37° C., 5% CO2) for 24 hr. Cell viability was determined via a cell counting kit (CCK-8 Kit, ab228554; Abcam), and cytotoxicity was determined via the lactate dehydrogenase (LDH) assay (LDH Assay Kit, MK401; Takara).

Consider `N.N.[Cl][Pt][Cl]` [cisplatin], for which the MIC is 300 µM in assay [1], 150 µM in assay [2] and 1000 µM in assay [3]. Also, the “time to eradicate P. aeruginosa cells” value in assay [4] was found to be 1 h.

(Values after patent US12472185B2, “Methods for killing antibiotic tolerant bacteria” (THE PENN STATE RESEARCH FOUNDATION, priority 2020, dated 2025).)
